Data reported in patent publication US20130116227A1, “BIARYL AMIDE DERIVATIVE OR PHARMACEUTICALLY ACCEPTABLE SALT THEREOF” (DAINIPPON SUMITOMO PHARMA CO., LTD., priority 2010, published 2013).
pIC50: −log10 of the molar value.

Target: T1, aldosterone receptor (Rattus norvegicus, UniProt P22199)
T1 construct: centrifuged at 105,000 g for 30 minutes, and then a supernatant was collected as a renal soluble fraction; from tissue; host or cells: rat kidney (adrenalectomized rat), 105,000 g supernatant (cytosol)
T1 sequence (P22199 1-981): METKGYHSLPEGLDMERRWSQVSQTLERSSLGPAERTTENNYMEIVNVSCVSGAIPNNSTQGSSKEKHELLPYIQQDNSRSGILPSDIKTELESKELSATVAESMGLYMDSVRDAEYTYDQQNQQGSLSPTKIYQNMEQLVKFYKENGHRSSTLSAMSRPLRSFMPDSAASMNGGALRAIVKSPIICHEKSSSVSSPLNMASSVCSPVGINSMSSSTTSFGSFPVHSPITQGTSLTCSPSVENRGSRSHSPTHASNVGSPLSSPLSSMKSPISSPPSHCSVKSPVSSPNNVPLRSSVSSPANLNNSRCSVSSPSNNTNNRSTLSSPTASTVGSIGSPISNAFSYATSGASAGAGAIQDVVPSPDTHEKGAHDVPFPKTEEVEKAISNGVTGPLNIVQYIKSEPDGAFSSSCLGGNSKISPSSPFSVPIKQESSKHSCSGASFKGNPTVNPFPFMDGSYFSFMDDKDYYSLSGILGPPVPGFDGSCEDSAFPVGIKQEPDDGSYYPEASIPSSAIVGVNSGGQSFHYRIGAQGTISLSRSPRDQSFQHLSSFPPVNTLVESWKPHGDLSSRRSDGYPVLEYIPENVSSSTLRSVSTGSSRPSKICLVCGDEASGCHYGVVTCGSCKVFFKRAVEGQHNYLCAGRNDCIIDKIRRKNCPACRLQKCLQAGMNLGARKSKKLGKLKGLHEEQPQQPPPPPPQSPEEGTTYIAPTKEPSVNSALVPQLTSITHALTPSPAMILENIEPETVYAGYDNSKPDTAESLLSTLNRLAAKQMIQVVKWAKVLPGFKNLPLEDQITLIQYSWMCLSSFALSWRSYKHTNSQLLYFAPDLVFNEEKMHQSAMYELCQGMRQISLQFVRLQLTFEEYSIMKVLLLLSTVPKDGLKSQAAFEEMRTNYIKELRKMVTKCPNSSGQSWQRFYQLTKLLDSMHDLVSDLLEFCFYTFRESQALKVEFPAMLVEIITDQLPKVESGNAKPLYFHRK
Experiment: Binding inhibition test for aldosterone receptor ([3H]aldosterone, rat renal soluble fraction)
Details: rat renal soluble fraction; for pIC50: [3H]aldosterone 2 nM, in the presence of 2 μM RU-486, 4° C. about 18 hours, read-out: MR IC50
Method: Binding Inhibition Test for Aldosterone Receptor
A rat was layed open in flank regions (on both sides) to remove both adrenal glands. After stitching up the incision, the rat was returnd to a breeding cage again. After removing the kidney from the rat reared for about 3 to 5 days, the kidney was homogenized in 0.1 M Tris-HCl, 0.25M sucrose, 0.1M Na2MoO4 and 2 mM DTT buffer solution (pH7.4). The resultant was centrifuged at 105,000 g for 30 minutes, and then a supernatant was collected as a renal soluble fraction.
The rat renal soluble fraction (0.5 to 1.5 mg), a labeled ligand [^3H] aldosterone (2 nM) and a test article were reacted in the presence of 2 μM RU-486 (glucocorticoid receptor antagonist) in 100 μL of total amounts at 4° C. for about 18 hours. Afterwards, to the reaction solution was added 50 μL of 5% dextran-coated activated charcoal, and the mixture was immingled, and then centrifuged at 3,000 g for 5 minutes. Then, a supernatant (100 μL) was collected and mixed with a liquid scintillator ACS-II (Amersham) (3.5 mL), and then analyzed its radioactivity by a liquid scintillation counter (manufactured by Packard, Tri Carb 2700TR). A non-specific binding was obtained by addition of 2 μM aldosterone to a reaction solution. […]
Binding inhibition rate (%)=100−{(B−N)/(B0−N)}×100
B: labeled ligand binding amounts in the presence of a test article and a labeled ligand
B0: labeled ligand binding amounts in the absence of a test article
N: labeled ligand binding amounts in the presence of excess aldosterone (2 μM)
Test example 1 was carried out for compounds obtained in the Examples.

Row | pIC50 | binding affinities for aldosterone receptor ([3H] aldosterone 2 nM, in the presence of 2 μM RU-486) | Structure (SMILES)
1 | > 5.00 |  | CS(=O)(=O)c1ccc(NC(=O)c2ccc(-c3ccccc3OC(F)(F)F)c(CNCCOc3ccccc3)c2)cc1 [Example 190]
2 | 6.26 |  | CCOC(=O)c1ccccc1-c1ccc(C(=O)Nc2ccc(S(N)(=O)=O)c(OC)c2)cc1 [Example 20]
3 | 6.66 |  | COc1cc(NC(=O)c2ccc(-c3ccccc3C(F)(F)F)c(CO)c2)ccc1S(N)(=O)=O [Example 69]
4 | 7.00 |  | CCOCc1cc(NC(=O)c2ccc(S(N)(=O)=O)c(OC)c2)ccc1-c1ccccc1C(F)(F)F [Example 373]
5 | 7.22 |  | COc1cc(NC(=O)c2ccc(-c3ccccc3OC(F)(F)F)c(CO)c2)ccc1S(N)(=O)=O [Example 122]
6 | 5.92 |  | COc1cc(C(=O)Nc2ccc(-c3ccccc3NC(C)C)c(C)c2)ccc1S(N)(=O)=O [Example 351]
7 | 5.92 |  | COc1cc(NC(=O)c2ccc(-c3ccccc3OC(C)C)cc2)ccc1S(N)(=O)=O [Example 39]
8 | 6.46 |  | Cn1cccc1CNCc1cc(C(=O)Nc2ccc(S(C)(=O)=O)cc2)ccc1-c1ccccc1OC(F)(F)F [Example 182]
9 | 6.68 |  | COc1cc(NC(=O)c2ccc(-c3ccccc3C(F)(F)F)c(COC(C)=O)c2)ccc1S(N)(=O)=O [Example 68]
10 | 6.49 |  | COc1cc(NC(=O)c2ccc(-c3ccccc3C(F)(F)F)c(CN3CCOCC3)c2)ccc1S(N)(=O)=O [Example 79]
11 | > 5.00 |  | COc1cc(NC(=O)c2ccc(-c3cc(F)ccc3Cl)c(CNCC(F)F)c2)ccc1S(N)(=O)=O [Example 457]
12 | > 5.00 |  | COc1cc(NC(=O)c2ccc(-c3ccccc3C(C)(F)F)c(CNCC(F)F)c2)ccc1S(N)(=O)=O [Example 469]
13 | 6.31 |  | COc1cc(NC(=O)c2ccc(-c3ccc(O)cc3C(F)(F)F)cc2)ccc1S(N)(=O)=O [Example 26]
14 | 6.41 |  | COc1cc(NC(=O)c2ccc(-c3ccccc3OC(F)(F)C(F)F)cc2)ccc1S(N)(=O)=O [Example 40]
15 | 6.00 |  | CCC(CC)NCc1cc(NC(=O)c2ccc(S(N)(=O)=O)c(OC)c2)ccc1-c1ccccc1C(F)(F)F [Example 355]
16 | 6.54 |  | CCN(CC)Cc1cc(C(=O)Nc2ccc(S(C)(=O)=O)cc2)ccc1-c1ccccc1OC(F)(F)F [Example 159]
17 | 6.55 |  | CS(=O)(=O)c1ccc(NC(=O)c2ccc(-c3ccccc3OC(F)(F)F)c(CNCc3ccccc3)c2)cc1 [Example 180]
18 | 6.28 |  | COc1cc(C(=O)Nc2ccc(-c3ccccc3C(F)(F)F)c(CN3CCC4(CC3)OCCO4)c2)ccc1S(N)(=O)=O [Example 393]
19 | 6.70 |  | CCOc1cc(C(=O)Nc2ccc(S(N)(=O)=O)c(OC)c2)ccc1-c1ccccc1C(F)(F)F [Example 60]
20 | 6.28 |  | COc1cc(NC(=O)c2ccc(-c3ccccc3C(F)(F)F)c(CN(C)C)c2)ccc1S(N)(=O)=O [Example 72]
21 | 6.20 |  | COc1cc(C(=O)Nc2ccc(-c3ccccc3C(F)(F)F)c(CNC3CC3)c2)ccc1S(N)(=O)=O [Example 403]
22 | 6.40 |  | CS(=O)(=O)c1ccc(NC(=O)c2ccc(-c3ccccc3OC(F)(F)F)c(CN3CCSCC3)c2)cc1 [Example 136]
23 | 6.21 |  | COc1cc(NC(=O)c2ccc(-c3ccccc3OC(F)(F)F)cc2)ccc1S(N)(=O)=O [Example 12]
24 | 6.20 |  | COc1cc(NC(=O)c2ccc(-c3ccccc3C)c(CNCC(F)F)c2)ccc1S(N)(=O)=O [Example 415]
25 | > 5.00 |  | COc1cc(NC(=O)c2ccc(-c3ccccc3C3CC3)c(CNCC(F)F)c2)ccc1S(N)(=O)=O [Example 448]
26 | 5.92 |  | COc1cc(NC(=O)c2ccc(-c3ccccc3F)c(CNCC(F)F)c2)ccc1S(N)(=O)=O [Example 419]
27 | > 5.00 |  | CCCOc1ncccc1-c1ccc(C(=O)Nc2ccc(S(N)(=O)=O)c(OC)c2)cc1CNCC(F)F [Example 481]

Row | pIC50 | binding affinities for aldosterone receptor ([3H] aldosterone 2 nM, in the presence of 2 μM RU-486) | Structure (SMILES)
28 | > 5.00 |  | COC(=O)Nc1cc(C(=O)Nc2ccc(S(N)(=O)=O)c(OC)c2)ccc1-c1ccccc1OC(F)(F)F [Example 578]
29 | 6.30 |  | CS(=O)(=O)c1ccc(NC(=O)c2ccc(-c3ccccc3OC(F)(F)F)c(CN3CCCC(F)(F)C3)c2)cc1 [Example 144]
30 | 6.51 |  | CCc1ccccc1-c1ccc(C(=O)Nc2ccc(S(N)(=O)=O)c(OC)c2)cc1CO [Example 126]
31 | 7.00 |  | CCN(CC)c1cc(C(=O)Nc2ccc(S(N)(=O)=O)c(OC)c2)ccc1-c1ccccc1OC(F)(F)F [Example 561]
32 | 7.09 |  | COc1cc(NC(=O)c2ccc(-c3ccccc3C(F)(F)F)c(COCC(OC)OC)c2)ccc1S(N)(=O)=O [Example 104]
33 | 5.80 |  | COc1cc(NC(=O)c2ccc(-c3cccnc3C3CC3)c(C)c2)ccc1S(N)(=O)=O [Example 533]
34 | 6.14 |  | COc1cc(NC(=O)c2ccc(-c3cccnc3C3CCC3)c(C)c2)ccc1S(N)(=O)=O [Example 282]
35 | 6.43 |  | Cn1ccnc1CNCc1cc(C(=O)Nc2ccc(S(C)(=O)=O)cc2)ccc1-c1ccccc1OC(F)(F)F [Example 218]
36 | 6.72 |  | COc1cc(NC(=O)c2ccc(-c3ccccc3C(F)(F)F)c(OCCOCc3ccccc3)c2)ccc1S(N)(=O)=O [Example 109]
37 | 6.82 |  | COc1cc(NC(=O)c2ccc(-c3ccccc3OC(F)(F)F)c(CN3CC(F)(F)C(F)(F)C3)c2)ccc1S(N)(=O)=O [Example 305]
38 | 6.72 |  | COc1cc(NC(=O)c2ccc(-c3ccccc3OC(F)(F)F)c(CN3CCCCC3)c2)ccc1S(N)(=O)=O [Example 297]
39 | 6.35 |  | COc1cc(NC(=O)c2ccc(-c3ccccc3-c3nc(C)no3)c(CO)c2)ccc1S(N)(=O)=O [Example 259]
40 |  | very few binding affinities | COc1cccc(NC(=O)c2ccc(-c3ccccc3)c(CN3CCCCC3)c2)c1 [compound 1, reference compound]
41 | > 5.00 |  | COc1cc(NC(=O)c2ccc(-c3ccccc3OC(F)(F)C(F)F)c(CNCC(F)F)c2)ccc1S(N)(=O)=O [Example 478]
42 | 6.26 |  | COc1cc(NC(=O)c2ccc(-c3ccccc3Cl)c(CNCC(F)F)c2)ccc1S(N)(=O)=O [Example 451]
43 | 5.92 |  | COc1cc(C(=O)Nc2ccc(-c3ccccc3OC(F)(F)F)c(C)c2)ccc1S(N)(=O)=O [Example 499]
44 | 6.54 |  | CCCN(CCC)Cc1cc(C(=O)Nc2ccc(S(C)(=O)=O)cc2)ccc1-c1ccccc1OC(F)(F)F [Example 505]
45 | 6.19 |  | COc1cc(NC(=O)c2ccc(-c3ccccc3SC)cc2)ccc1S(N)(=O)=O [Example 57]
46 | 6.24 |  | COc1cc(NC(=O)c2ccc(-c3ccc(F)cc3Cl)c(CNCC(F)F)c2)ccc1S(N)(=O)=O [Example 426]
47 | 5.39 |  | COc1cc(NC(=O)c2ccc(-c3ncccc3C(F)(F)F)c(C)c2)ccc1S(N)(=O)=O [Example 279]
48 | 6.57 |  | COc1cc(NC(=O)c2ccc(-c3ccccc3OC(F)(F)F)c(CNc3nnn[nH]3)c2)ccc1S(N)(=O)=O [Example 293]
49 | > 5.00 |  | COc1cc(F)ccc1-c1ccc(C(=O)Nc2ccc(S(N)(=O)=O)c(OC)c2)cc1CNCC(F)F [Example 593]
50 | 6.38 |  | CS(=O)(=O)c1ccc(NC(=O)c2ccc(-c3ccccc3OC(F)(F)F)c(CN3CCC(F)(F)C3)c2)cc1 [Example 142]
51 | 6.28 |  | CCc1ccccc1-c1ccc(C(=O)Nc2ccc(S(N)(=O)=O)c(OC)c2)cc1 [Example 56]
52 | 6.40 |  | COc1cc(NC(=O)c2ccc(-c3ccc(O)cc3C(F)(F)F)c(C)c2)ccc1S(N)(=O)=O [Example 272]
53 | 6.43 |  | COc1cc(NC(=O)c2ccc(-c3ccc(N)cc3C(F)(F)F)c(C)c2)ccc1S(N)(=O)=O [Example 271]
